{
  "source": "patent US20230002348A1",
  "about": "(ILDONG PHARMACEUTICAL CO., LTD., priority 2019, published 2023)",
  "target": "T1, GLP-1 receptor (Homo sapiens, UniProt P43220)",
  "T1 construct": "expressed in transfected cells; host or cells: CHO-K1",
  "T1 sequence (P43220 24-463, species assumed)": "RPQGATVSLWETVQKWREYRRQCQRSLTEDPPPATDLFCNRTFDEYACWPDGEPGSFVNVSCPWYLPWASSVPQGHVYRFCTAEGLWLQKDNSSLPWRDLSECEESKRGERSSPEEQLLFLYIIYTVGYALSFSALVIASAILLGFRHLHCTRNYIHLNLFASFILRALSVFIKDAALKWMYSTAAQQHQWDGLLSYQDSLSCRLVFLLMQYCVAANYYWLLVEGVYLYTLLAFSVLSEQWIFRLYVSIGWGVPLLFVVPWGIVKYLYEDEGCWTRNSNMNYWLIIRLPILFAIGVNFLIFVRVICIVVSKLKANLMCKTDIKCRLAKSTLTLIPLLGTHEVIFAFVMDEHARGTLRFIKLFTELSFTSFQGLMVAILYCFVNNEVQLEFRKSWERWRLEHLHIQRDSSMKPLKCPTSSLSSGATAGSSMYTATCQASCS",
  "assay": "cAMP assay (HTRF) in GLP-1 receptor CHO-K1 cells",
  "assay_type": "cell-based",
  "conditions": "for Emax: CHO-K1, cAMP stimulation ratio",
  "description": "The cAMP assay test was performed according to a method optimized based on a protocol provided by cAMP assay kit manufacturer (CISBIO). […] 54, of the compounds according to the Examples 1, 2, 5, 8, 12, 13, 15, 16, 19, 20, 23, 29, 32, 37, 39 and 43 at the concentration of 0, 1, 10, 100, 1000, 10000 nM was treated to each of the wells of the other plates, respectively. The cells were incubated at room temperature for 7 minutes. A cAMP-d2 conjugate reagent was prepared by mixing a cAMP conjugate with an elution buffer at a ratio of 1:4. An anti-cAMP cryptate conjugate reagent was prepared by mixing a […] with an elution buffer at a ratio of 1:4. Then, 5 μL, of the cAMP-d2 conjugate reagent was added to each of the wells. Subsequently, 5 μL, of the anti-cAMP cryptate conjugate reagent was added to each of the wells. After incubation of the cells at room temperature for 1 hour, HTRF signals at wavelengths of 665 nm and 620 nm of the culture were measured using a FlexStaton 3 (Molecular Devices) instrument. The ratio of 665/620 was calculated from the measured values at 665 nm and 620 nm with regard to Exendin-4 and the compounds of the Examples, respectively.",
  "key": {"[1]": {"conditions": "665/620 ratio with Exendin-4 converted to 100%"}},
  "note": "Like-named read-outs stand apart in the source and are kept apart here.",
  "data": [
    {"compound": "N#Cc1ccc(COc2cccc(NC3CCN(Cc4nc5ccc(C(=O)O)cc5n4C[C@@H]4CCO4)CC3)n2)c(F)c1", "note": "[Example 1, (S)-2-((4-((6-((4-cyano-2-fluorobenzyl)oxy)pyridin-2-yl)amino)piperidin-1-yl)methyl)-1-(oxetan-2-ylmethyl)-1H-benzo[d]imidazole-6-carboxylic acid]", "values": [
      {"measurement": "EC50", "result": "< 100", "unit": "nM"},
      {"measurement": "Emax", "setting": "[1]", "result": 96.3, "unit": "%"}
    ]},
    {"compound": "N#Cc1ccc(COc2cccc(NC3CCN(Cc4nc5ccc(C(=O)O)cc5n4C[C@@H]4CCO4)CC3)c2)c(F)c1", "note": "[Example 2, (S)-2-((4-((3-((4-cyano-2-fluorobenzyl)oxy)phenyl)amino)piperidin-1-yl)methyl)-1-(oxetan-2-ylmethyl)-1H-benzo[d]imidazole-6-carboxylic acid]", "values": [
      {"measurement": "EC50", "result": "100 to 200", "unit": "nM"},
      {"measurement": "Emax", "setting": "[1]", "result": 102, "unit": "%"}
    ]},
    {"compound": "O=C(O)c1ccc2nc(CN3CCC(Oc4cccc(NCc5ccc(Cl)cc5F)n4)CC3)n(C[C@@H]3CCO3)c2c1", "note": "[Example 5, (S)-2-((4-((6-((4-chloro-2-fluorobenzyl)amino)pyridin-2-yl)oxy)piperidin-1-yl)methyl)-1-(oxetan-2-ylmethyl)-1H-benzo[d]imidazole-6-carboxylic acid]", "values": [
      {"measurement": "EC50", "result": "100 to 200", "unit": "nM"},
      {"measurement": "Emax", "setting": "[1]", "result": 107, "unit": "%"}
    ]},
    {"compound": "N#Cc1ccc(COc2cc(N[C@@H]3CCN(Cc4nc5ccc(C(=O)O)cc5n4C[C@@H]4CCO4)C3)ccc2F)nc1", "note": "[Example 8, 2-(((R)-3-((3-((5-cyanopyridin-2-yl)methoxy)-4-fluorophenyl)amino)pyrrolidin-1-yl)methyl)-1-(((S)-oxetan-2-yl)methyl)-1H-benzo[d]imidazole-6-carboxylic acid]", "values": [
      {"measurement": "EC50", "result": "< 100", "unit": "nM"},
      {"measurement": "Emax", "setting": "[1]", "result": 99.6, "unit": "%"}
    ]},
    {"compound": "O=C(O)c1ccc2nc(CN3CCC(Nc4cccc(OCc5ccc(Cl)cc5F)n4)CC3)n(C[C@@H]3CCO3)c2c1", "note": "[Example 12, (S)-2-((4-((6-((4-chloro-2-fluorobenzyl)oxy)pyridin-2-yl)amino)piperidin-1-yl)methyl)-1-(oxetan-2-ylmethyl)-1H-benzo[d]imidazole-6-carboxylic acid]", "values": [
      {"measurement": "EC50", "result": "< 100", "unit": "nM"},
      {"measurement": "Emax", "setting": "[1]", "result": 103, "unit": "%"}
    ]},
    {"compound": "O=C(O)c1ccc2nc(CN3CCC(Nc4cccc(OCc5ccc(Cl)cc5F)n4)CC3)n(C[C@@H]3CCO3)c2n1", "note": "[Example 13]", "values": [
      {"measurement": "EC50", "result": "< 100", "unit": "nM"},
      {"measurement": "Emax", "setting": "[1]", "result": 94.5, "unit": "%"}
    ]},
    {"compound": "O=C(O)c1ccc2nc(CN3CC[C@@H](Nc4cccc(OCc5ccc(Cl)cc5F)n4)C3)n(C[C@@H]3CCO3)c2c1", "note": "[Example 15, 2-(((R)-3-((6-((4-chloro-2-fluorobenzyl)oxy)pyridin-2-yl)amino)pyrrolidin-1-yl)methyl)-1-(((S)-oxetan-2-yl)methyl)-1H-benzo[d]imidazole-6-carboxylic acid]", "values": [
      {"measurement": "EC50", "result": "< 100", "unit": "nM"},
      {"measurement": "Emax", "setting": "[1]", "result": 99.6, "unit": "%"}
    ]},
    {"compound": "O=C(O)c1ccc2nc(CN3CC[C@@H](Nc4cccc(OCc5ccc(Cl)cc5F)n4)C3)n(C[C@@H]3CCO3)c2n1", "note": "[Example 16, 2-(((R)-3-((6-((4-chloro-2-fluorobenzyl)oxy)pyridin-2-yl)amino)pyrrolidin-1-yl)methyl)-3-(((S)-oxetan-2-yl)methyl)-3H-imidazo[4,5-b]pyridine-5-carboxylic acid]", "values": [
      {"measurement": "EC50", "result": "< 100", "unit": "nM"},
      {"measurement": "Emax", "setting": "[1]", "result": 95, "unit": "%"}
    ]},
    {"compound": "N#Cc1ccc(COc2cncc(NC3CCN(Cc4nc5ccc(C(=O)O)cc5n4C[C@@H]4CCO4)CC3)n2)c(F)c1", "note": "[Example 19, (S)-2-((4-((6-((4-cyano-2-fluorobenzyl)oxy)pyrazin-2-yl)amino)piperidin-1-yl)methyl)-1-(oxetan-2-ylmethyl)-1H-benzo[d]imidazole-6-carboxylic acid]", "values": [
      {"measurement": "EC50", "result": "100 to 200", "unit": "nM"},
      {"measurement": "Emax", "setting": "[1]", "result": 97, "unit": "%"}
    ]},
    {"compound": "N#Cc1ccc(COc2cccc(N[C@@H]3CCN(Cc4nc5ccc(C(=O)O)cc5n4C[C@@H]4CCO4)C3)n2)c(F)c1", "note": "[Example 20, 2-((3-((6-((4-cyano-2-fluorobenzyl)oxy)pyridin-2-yl)amino)pyrrolidin-1-yl)methyl)-1-(((S)-oxetan-2-yl)methyl)-1H-benzo[d]imidazole-6-carboxylic acid]", "values": [
      {"measurement": "EC50", "result": "< 100", "unit": "nM"},
      {"measurement": "Emax", "setting": "[1]", "result": 96.3, "unit": "%"}
    ]},
    {"compound": "N#Cc1ccc(COc2nccc(N[C@@H]3CCN(Cc4nc5ccc(C(=O)O)cc5n4C[C@@H]4CCO4)C3)n2)c(F)c1", "note": "[Example 23, 2-(((R)-3-((2-((4-cyano-2-fluorobenzyl)oxy)pyrimidin-4-yl)amino)pyrrolidin-1-yl)methyl)-1-(((S)-oxetan-2-yl)methyl)-1H-benzo[d]imidazole-6-carboxylic acid]", "values": [
      {"measurement": "EC50", "result": "100 to 200", "unit": "nM"},
      {"measurement": "Emax", "setting": "[1]", "result": 99.8, "unit": "%"}
    ]},
    {"compound": "O=C(O)c1ccc2nc(CN3CC[C@@H](Nc4ncc(F)c(OCc5ccc(Cl)cc5F)n4)C3)n(C[C@@H]3CCO3)c2c1", "note": "[Example 29, 2-(((R)-3-((4-((4-chloro-2-fluorobenzyl)oxy)-5-fluoropyrimidin-2-yl)amino)pyrrolidin-1-yl)methyl)-1-(((S)-oxetan-2-yl)methyl)-1H-benzo[d]imidazole-6-carboxylic acid]", "values": [
      {"measurement": "EC50", "result": "< 100", "unit": "nM"},
      {"measurement": "Emax", "setting": "[1]", "result": 99.2, "unit": "%"}
    ]},
    {"compound": "N#Cc1ccc(COc2cccc(N[C@@H]3CCN(Cc4nc5ccc(C(=O)O)cc5n4C[C@@H]4CCO4)C3)n2)c(F)c1", "note": "[Example 32, 2-(((R)-3-((6-((4-cyano-2-fluorobenzyl)oxy)pyridin-2-yl)amino)pyrrolidin-1-yl)methyl)-1-(((S)-oxetan-2-yl)methyl)-1H-benzo[d]imidazole-6-carboxylic acid]", "values": [
      {"measurement": "EC50", "setting": "GLP-1 receptor CHO-K1 cells, cAMP HTRF, 7 minutes incubation at room temperature", "result": "< 100", "unit": "nM"},
      {"measurement": "Emax (%)", "setting": "cAMP stimulation ratio, 665/620 ratio with Exendin-4 converted to 100%", "result": 96.94, "unit": "%"}
    ]},
    {"compound": "N#Cc1ccc(COc2cccc(N[C@@H]3CCN(Cc4nc5ccc(C(=O)O)cc5n4C[C@@H]4CCO4)C3)c2)c(F)c1", "note": "[Example 37, 2-(((R)-3-((3-((4-cyano-2-fluorobenzyl)oxy)phenyl)amino)pyrrolidin-1-yl)methyl)-1-(((S)-oxetan-2-yl)methyl)-1H-benzo[d]imidazole-6-carboxylic acid]", "values": [
      {"measurement": "EC50", "result": "< 100", "unit": "nM"},
      {"measurement": "Emax", "setting": "[1]", "result": 127, "unit": "%"}
    ]},
    {"compound": "O=C(O)c1ccc2nc(CN3CCC(Nc4cccc(OCc5ccc(Cl)cn5)n4)CC3)n(C[C@@H]3CCO3)c2c1", "note": "[Example 39, (S)-2-((4-((6-((5-chloropyridin-2-yl)methoxy)pyridin-2-yl)amino)piperidin-1-yl)methyl)-1-(oxetan-2-ylmethyl)-1H-benzo[d]imidazole-6-carboxylic acid]", "values": [
      {"measurement": "EC50", "result": "100 to 200", "unit": "nM"},
      {"measurement": "Emax", "setting": "[1]", "result": 96.6, "unit": "%"}
    ]},
    {"compound": "N#Cc1ccc(COc2ccnc(N[C@@H]3CCN(Cc4nc5ccc(C(=O)O)cc5n4C[C@@H]4CCO4)C3)n2)c(F)c1", "note": "[Example 43, 2-(((R)-3-((4-((4-cyano-2-fluorobenzyl)oxy)pyrimidin-2-yl)amino)pyrrolidin-1-yl)methyl)-1-(((S)-oxetan-2-yl)methyl)-1H-benzo[d]imidazole-6-carboxylic acid]", "values": [
      {"measurement": "EC50", "result": "< 100", "unit": "nM"},
      {"measurement": "Emax", "setting": "[1]", "result": 110, "unit": "%"}
    ]}
  ]
}
